# Patent US8337835B2, “Use of an endogenous ligand for peroxisome proliferator activated receptor alpha to treat liver disorders” (priority 2009, dated 2012)
# Molecular target: T1, ΔDBD-PPARα (Mus musculus, UniProt P23204, C119A/C122A)
# T1 construct: expressed in transfected cells; host or cells: liver of chow-fed WT mice on a PPARα null background, infected with AdFLAG-ΔDBD PPARα adenovirus
# T1 sequence (P23204 1-468 C119A/C122A): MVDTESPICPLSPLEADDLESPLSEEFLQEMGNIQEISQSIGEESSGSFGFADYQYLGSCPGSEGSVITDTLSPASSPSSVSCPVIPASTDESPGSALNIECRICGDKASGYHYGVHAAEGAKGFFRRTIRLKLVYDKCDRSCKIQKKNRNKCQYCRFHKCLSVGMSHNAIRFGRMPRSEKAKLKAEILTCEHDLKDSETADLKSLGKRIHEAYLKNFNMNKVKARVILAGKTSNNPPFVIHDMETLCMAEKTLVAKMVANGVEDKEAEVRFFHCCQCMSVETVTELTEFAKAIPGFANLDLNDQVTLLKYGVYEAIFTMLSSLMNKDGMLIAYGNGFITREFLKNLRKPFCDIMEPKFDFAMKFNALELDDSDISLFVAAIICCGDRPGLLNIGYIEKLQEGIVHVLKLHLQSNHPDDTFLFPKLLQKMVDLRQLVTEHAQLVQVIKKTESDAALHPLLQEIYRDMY
# Assay: In vivo competitive inhibition with PPARα having a defective DNA binding domain
# Conditions: 50 μg/g intraperitoneal; chow fed WT mice on PPARα null background with AdFLAG-ΔDBD PPARα; 0-60 min
# From the text: Adenovirus encoding both FLAG®-tagged wild type mouse PPARα and a GFP marker, and an adenovirus encoding GFP alone were gifts from T. C. Leone and D. P. Kelly. The AdPPARα virus is known to result in expression of a protein that transactivates PPARα target genes (Bernal-Mizrachi et al., 2003; Tordjman et al., 2002). The DNA binding domain (DBD) mutant of PPARα was generated by mutating the two highly conserved cysteine residues (Shi et al., 2002) to alanine (C119A, C122A) using site-directed mutagenesis (QuikChange® kit, Stratagene). The DBD mutant was subcloned into the pCMV-TAG1 vector (Stratagene) to acquire a FLAG® tag, then shuttled into pAdTrack-CMV vector encoding a GFP marker and recombined with Ad-Easy1 vector. The pAdTrack-CMV and pAdEasy-1 vectors were gifts from the laboratory of B. Vogelstein. […]
# To address the concern that lipid loss could represent Wy14,643-accelerated metabolism as opposed to displacement of the ligand, 1-palmitoyl-2-oleoyl-sn-glycerol-3-phosphocholine (16:0/18:1-GPC) from its binding site on PPARα, an in vivo competitive inhibition experiment using a PPARα molecule with a defective DNA binding domain (see FIG. 5A) was employed. […] Quantification of the relative abundance of the m/z 766 ion in response to Wy14,643 administration in WT mice on a PPARα null background injected with AdFLAG-^ΔDBD PPARα adenovirus is shown in FIG. 5M. […]
smiles,measurement,value
"Cc1cccc(Nc2cc(Cl)nc(SCC(=O)O)n2)c1C [Wy14,643, 4-Chloro-6-(2,3-xylidino)-2-pyrimidinylthioacetic acid]",displacement of m/z 766 (16:0/18:1-GPC) from ΔDBD-PPARα,competed away from ΔDBD-PPARα within minutes
